This passage reports pest or weed control and YFM rating results from patent US10219516B2, “Molecules having pesticidal utility, and intermediates, compositions, and processes, related thereto” (priority 2015, dated 2019).

Molecules are shown by their SMILES.

Format in all cases: in vivo
For experiment [1], the system named is Cabbage Looper (Trichoplusia ni, TRIPNI). Description: Bioassay on Cabbage Looper (CL), 128-well diet tray assay. The conditions noted are these: Trichoplusia ni; Cabbage Looper, 128-well diet tray assay; read-out: CL rating. In outline: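 Diet-incorporation-free surface assay: 50 μg/cm^2 compound in acetone-water (90:10), dried on diet; 1–5 2nd-instar larvae/well; 8 wells; vented cover; 25° C., 14:10 L:D, 5–7 d; % mortality averaged over wells.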

Experiment [2] has as its system Beet Armyworm (Spodoptera exigua, LAPHEG). Kind of experiment: Bioassay on Beet Armyworm (BAW), 128-well diet tray assay. The conditions noted are these: Beet Armyworm, 128-well diet tray assay, read-out: BAW rating. In outline:
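Diet tray, 8 wells/compound; 50 μg/cm^2 applied to diet surface (90:10 acetone-water), dried. 1–5 L2 larvae/well; 25° C., 14:10 L:D, 5–7 d. Read-out: % mortality, mean of 8 wells.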

The test system of experiment [3] is Yellow Fever Mosquito (Aedes aegypti, AEDSAE). Kind of experiment: Bioassay on Yellow Fever Mosquito (YFM), 96-well plate larval assay. To be noted: Yellow Fever Mosquito, 96-well plate larval assay. Put shortly: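 Aedes aegypti larvae (about 1 day old) in liver-powder water were added to plates dispensed from DMSO master plates (4000 ppm stock) diluted with 90:10 water/acetone; six replicate plates per master. Lidded plates were held at room temperature for 3 days, then each well was scored for mortality.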

Take `O=C(Nc1ncc(F)cc1F)c1cc(NC(=O)[C@H]2[C@H](c3cc(F)cc(C(F)F)c3)C2(Cl)Cl)ccc1Cl` (relative stereo) [F586, 2-Chloro-5-(trans-2,2-dichloro-3-(3-(difluoromethyl)-5-fluorophenyl)cyclopropane-1-carboxamido)-N-(3,5-difluoropyridin-2-yl)benzamide]: the pest or weed control at 50 µg/cm2 in experiment [1] and in experiment [2] was 50 to 100% throughout. The YFM rating entry in experiment [3] was “A (80-100)”.
In the case of `O=C(Nc1ncc(F)cc1F)c1cc(NC(=O)[C@H]2[C@H](c3ccc(F)c(C(F)F)c3)C2(Cl)Cl)ccc1Cl` (relative stereo) [F587, 2-Chloro-5-(trans-2,2-dichloro-3-(3-(difluoromethyl)-4-fluorophenyl)cyclopropane-1-carboxamido)-N-(3,5-difluoropyridin-2-yl)benzamide], the pest or weed control at 50 µg/cm2 in experiment [1] and in experiment [2] was 50 to 100% in each case. The YFM rating result in experiment [3] is reported as “A (80-100)”.
Consider `O=C(Nc1ncc(F)cc1F)c1cc(NC(=O)[C@H]2[C@H](c3ccc(C(F)F)c(Cl)c3)C2(Cl)Cl)ccc1Cl` (relative stereo) [F588, 2-Chloro-5-(trans-2,2-dichloro-3-(3-chloro-4-(difluoromethyl)phenyl)cyclopropane-1-carboxamido)-N-(3,5-difluoropyridin-2-yl)benzamide], for which the pest or weed control at 50 µg/cm2 in experiment [1] and in experiment [2] was 50 to 100% in each case. In experiment [3], the YFM rating result is on record as “A (80-100)”.
For `O=C(Nc1ncc(F)cc1F)c1cc(NC(=O)[C@H]2[C@H](c3ccc(C(F)F)c(F)c3)C2(Cl)Cl)ccc1Cl` (relative stereo) [F589, 2-chloro-5-(trans-2,2-dichloro-3-(4-(difluoromethyl)-3-fluorophenyl)cyclopropane-1-carboxamido)-N-(3,5-difluoropyridin-2-yl)benzamide], the pest or weed control at 50 µg/cm2 in experiment [1] and in experiment [2] was 50 to 100% throughout. Further, the YFM rating result in experiment [3] is “A (80-100)”.
`O=C(Nc1ncc(F)cc1F)c1cc(NC(=O)[C@H]2[C@H](c3cccc(C(F)F)c3)C2(Cl)Cl)ccc1Cl` (relative stereo) [F590, 2-Chloro-5-(trans-2,2-dichloro-3-(3-(difluoromethyl)phenyl)cyclopropane-1-carboxamido)-N-(3,5-difluoropyridin-2-yl)benzamide]: the pest or weed control at 50 µg/cm2 in experiment [1] and in experiment [2] was 50 to 100% in each case. For the same molecule, the YFM rating result in experiment [3] is recorded as “A (80-100)”.
Turning to `O=C(Nc1ncc(F)cc1F)c1cc(NC(=O)[C@H]2[C@H](c3ccc(C(F)F)cc3)C2(Cl)Cl)ccc1Cl` (relative stereo) [F591, 2-Chloro-5-(trans-2,2-dichloro-3-(4-(difluoromethyl)phenyl)cyclopropane-1-carboxamido)-N-(3,5-difluoropyridin-2-yl)benzamide], the pest or weed control at 50 µg/cm2 in experiment [1] and in experiment [2] was 50 to 100% in each case. Moreover, the YFM rating result in experiment [3] was “A (80-100)”.
For the molecule `CN(C(=O)c1cc(NC(=O)[C@H]2[C@H](c3cc(Cl)cc(C(F)F)c3)C2(Cl)Cl)ccc1Cl)c1ccc(F)cc1` (relative stereo) [F592, 2-Chloro-5-(trans-2,2-dichloro-3-(3-chloro-5-(difluoromethyl)phenyl)cyclopropane-1-carboxamido)-N-(4-fluorophenyl)-N-methylbenzamide], the pest or weed control at 50 µg/cm2 in experiment [1] and in experiment [2] was 50 to 100% in each case. Besides, the YFM rating result in experiment [3] was “A (80-100)”.
Consider `CN(C(=O)c1cc(NC(=O)[C@H]2[C@H](c3ccc(Cl)c(C(F)F)c3)C2(Cl)Cl)ccc1Cl)c1ccc(F)cc1` (relative stereo) [F593, 2-Chloro-5-(trans-2,2-dichloro-3-(4-chloro-3-(difluoromethyl)phenyl)cyclopropane-1-carboxamido)-N-(4-fluorophenyl)-N-methylbenzamide], for which the pest or weed control at 50 µg/cm2 in experiment [1] and in experiment [2] was 50 to 100% in each case. Further, the YFM rating result in experiment [3] is given as “A (80-100)”.
As for `CN(C(=O)c1cc(NC(=O)[C@H]2[C@H](c3cc(F)cc(C(F)F)c3)C2(Cl)Cl)ccc1Cl)c1ccc(F)cc1` (relative stereo) [F594, 2-Chloro-5-(trans-2,2-dichloro-3-(3-(difluoromethyl)-5-fluorophenyl)cyclopropane-1-carboxamido)-N-(4-fluorophenyl)-N-methylbenzamide], the pest or weed control at 50 µg/cm2 in experiment [1] and in experiment [2] was 50 to 100% each time. In addition, the YFM rating result in experiment [3] was “A (80-100)”.
Consider `CN(C(=O)c1cc(NC(=O)[C@H]2[C@H](c3ccc(F)c(C(F)F)c3)C2(Cl)Cl)ccc1Cl)c1ccc(F)cc1` (relative stereo) [F595, 2-Chloro-5-(trans-2,2-dichloro-3-(3-(difluoromethyl)-4-fluorophenyl)cyclopropane-1-carboxamido)-N-(4-fluorophenyl)-N-methylbenzamide], for which the pest or weed control at 50 µg/cm2 in experiment [1] and in experiment [2] was 50 to 100% in each case. In addition, the YFM rating entry in experiment [3] is “A (80-100)”.
Regarding `CN(C(=O)c1cc(NC(=O)[C@H]2[C@H](c3ccc(C(F)F)c(Cl)c3)C2(Cl)Cl)ccc1Cl)c1ccc(F)cc1` (relative stereo) [F596, 2-Chloro-5-(trans-2,2-dichloro-3-(3-chloro-4-(difluoromethyl)phenyl)cyclopropane-1-carboxamido)-N-(4-fluorophenyl)-N-methylbenzamide], the pest or weed control at 50 µg/cm2 in experiment [1] and in experiment [2] was 50 to 100% each time. Besides, the YFM rating result in experiment [3] is given as “A (80-100)”.
Turning to `CN(C(=O)c1cc(NC(=O)[C@H]2[C@H](c3ccc(C(F)F)c(F)c3)C2(Cl)Cl)ccc1Cl)c1ccc(F)cc1` (relative stereo) [F597, 2-Chloro-5-(trans-2,2-dichloro-3-(4-(difluoromethyl)-3-fluorophenyl)cyclopropane-1-carboxamido)-N-(4-fluorophenyl)-N-methylbenzamide], the pest or weed control at 50 µg/cm2 in experiment [1] and in experiment [2] was 50 to 100% each time. The YFM rating result in experiment [3] is on record as “A (80-100)”.
`CN(C(=O)c1cc(NC(=O)[C@H]2[C@H](c3cccc(C(F)F)c3)C2(Cl)Cl)ccc1Cl)c1ccc(F)cc1` (relative stereo) [F598, 2-Chloro-5-(trans-2,2-dichloro-3-(3-(difluoromethyl)phenyl)cyclopropane-1-carboxamido)-N-(4-fluorophenyl)-N-methylbenzamide]: the pest or weed control at 50 µg/cm2 in experiment [1] and in experiment [2] was 50 to 100% throughout. Moreover, in experiment [3], the YFM rating result is listed as “A (80-100)”.
Regarding `CN(C(=O)c1cc(NC(=O)[C@H]2[C@H](c3ccc(C(F)F)cc3)C2(Cl)Cl)ccc1Cl)c1ccc(F)cc1` (relative stereo) [F599, 2-Chloro-5-(trans-2,2-dichloro-3-(4-(difluoromethyl)phenyl)cyclopropane-1-carboxamido)-N-(4-fluorophenyl)-N-methylbenzamide], the pest or weed control at 50 µg/cm2 in experiment [1] and in experiment [2] was 50 to 100% throughout. The YFM rating entry in experiment [3] is on record as “A (80-100)”.
For the molecule `O=C(Nc1ccc(F)cc1F)c1cc(NC(=O)[C@H]2[C@H](c3ccc(F)c(Cl)c3)C2(Cl)Cl)ccc1Cl` (relative stereo) [PF6, trans-2-Chloro-5-(2,2-dichloro-3-(3-chloro-4-fluorophenyl)cyclopropane-1-carboxamido)-N-(2,4-difluorophenyl)benzamide], the pest or weed control at 50 µg/cm2 in experiment [1] and in experiment [2] was 50 to 100% in each case. Further, the YFM rating result in experiment [3] is recorded as “A (80-100)”.
As for `CCc1ccc(NC(=O)[C@H]2[C@H](c3cc(Cl)cc(Cl)c3)C2(Cl)Cl)cc1C(=O)Nc1ccc(F)cc1` (relative stereo) [PF8, trans-5-(2,2-Dichloro-3-(3,5-dichlorophenyl)cyclopropanecarboxamido)-2-ethyl-N-(4-fluorophenyl)benzamide], the pest or weed control at 50 µg/cm2 in experiment [1] and in experiment [2] was 50 to 100% in each case. Further, the YFM rating result in experiment [3] is “A (80-100)”.
Take `C=Cc1ccc(NC(=O)[C@H]2[C@H](c3cc(Cl)cc(Cl)c3)C2(Cl)Cl)cc1C(=O)Nc1ccc(F)cc1` (relative stereo) [PF9, trans-5-(2,2-Dichloro-3-(3,5-dichlorophenyl)cyclopropanecarboxamido)-N-(4-fluorophenyl)-2-vinylbenzamide]: the pest or weed control at 50 µg/cm2 in experiment [1] and in experiment [2] was 50 to 100% in each case. Besides, the YFM rating result in experiment [3] is reported as “A (80-100)”.
Regarding `O=C(Nc1ccc(SCC(F)(F)F)cc1)c1cc(NC(=O)[C@H]2[C@H](c3cc(Cl)cc(Cl)c3)C2(Cl)Cl)ccc1Cl` (relative stereo) [PF10, trans-2-Chloro-5-(2,2-dichloro-3-(3,5-dichlorophenyl)cyclopropane-1-carboxamido)-N-(4-((2,2,2-trifluoroethyl)thio)phenyl)benzamide], the pest or weed control at 50 µg/cm2 in experiment [1] and in experiment [2] was 50 to 100% each time. In experiment [3], the YFM rating entry is on record as “B (More than 0-Less than 80)”.
As to `O=C(Nc1ccc(SC(F)(F)F)cc1)c1cc(NC(=O)[C@H]2[C@H](c3cc(Cl)cc(Cl)c3)C2(Cl)Cl)ccc1Cl` (relative stereo) [PF11, trans-2-Chloro-5-(2,2-dichloro-3-(3,5-dichlorophenyl)cyclopropane-1-carboxamido)-N-(4-((trifluoromethyl)thio)phenyl)benzamide], the pest or weed control at 50 µg/cm2 in experiment [1] and in experiment [2] was 50 to 100% each time. Besides, the YFM rating result in experiment [3] was “B (More than 0-Less than 80)”.
